Test results: US6369088B2, “Substituted 3-phenyl-5-alkoxy-1,3,4-oxadiazol-2-ones, their preparation and their use as pharmaceuticals” (Aventis Pharma Deutschland GmbH, priority 2000, dated 2002)
Where a name gives a salt, the structure may show the parent alone. Read-outs that look alike come from different tables or passages of the source.

Columns and labels:
[1] = molecular target: T1, hormone-sensitive lipase (HSL) (Rattus norvegicus, UniProt P15304); experiment: HSL enzyme assay: [3H]trioleoylglycerol hydrolysis by partially purified HSL; type: biochemical
T1 construct: Isolated rat fat cells were obtained from epididymal adipose tissue; from tissue; host or cells: rat epididymal adipose tissue (isolated fat cells, Wistar rats)
T1 sequence (P15304 1-768 isoform P15304-2): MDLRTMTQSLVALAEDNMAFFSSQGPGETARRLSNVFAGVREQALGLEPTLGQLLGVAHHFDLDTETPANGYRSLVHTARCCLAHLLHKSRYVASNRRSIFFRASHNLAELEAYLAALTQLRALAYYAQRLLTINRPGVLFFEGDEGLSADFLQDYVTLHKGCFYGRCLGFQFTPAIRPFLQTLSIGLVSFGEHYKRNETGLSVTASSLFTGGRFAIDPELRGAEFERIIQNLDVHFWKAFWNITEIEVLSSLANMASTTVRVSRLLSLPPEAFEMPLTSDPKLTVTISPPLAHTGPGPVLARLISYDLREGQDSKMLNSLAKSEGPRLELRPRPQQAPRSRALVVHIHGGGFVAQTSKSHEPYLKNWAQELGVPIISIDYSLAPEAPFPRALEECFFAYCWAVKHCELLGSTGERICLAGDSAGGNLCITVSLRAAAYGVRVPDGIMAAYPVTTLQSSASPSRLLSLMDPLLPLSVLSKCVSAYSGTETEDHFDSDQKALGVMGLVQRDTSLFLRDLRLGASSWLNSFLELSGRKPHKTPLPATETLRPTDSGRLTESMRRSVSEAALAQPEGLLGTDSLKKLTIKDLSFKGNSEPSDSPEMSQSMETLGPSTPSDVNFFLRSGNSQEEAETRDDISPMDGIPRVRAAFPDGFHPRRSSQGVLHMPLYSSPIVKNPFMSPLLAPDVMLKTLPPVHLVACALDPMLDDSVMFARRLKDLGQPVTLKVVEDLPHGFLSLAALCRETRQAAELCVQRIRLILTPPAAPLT
Protocol: The effect of the compounds of the invention on HSL was tested using the following enzyme assay system:
Preparation of Partially Purified HSL:
The fat cells from 10 rats were washed three times by flotation with 50 ml each time of homogenization buffer ([…] tris/HCl, pH 7.4, 0.25 M sucrose, 1 mM EDTA, 1 mM DTT, 10 μg/ml leupeptin, 10 μg/ml antipain, 20 μg/ml pepstatin) and finally taken up in 10 ml of homogenization buffer. The fat cells were homogenized in a Teflon-in-glass homogenizer (Braun-Melsungen) by 10 strokes at 1500 rpm and 15° C. The homogenate was centrifuged (Sorvall SM24 tubes, 5000 rpm, 10 min, 4° C.). The subnatant between the fatty layer at the top and the pellet was removed and the centrifugation was repeated. The subnatant resulting therefrom was recentrifuged (Sorvall SM24 tubes, 20000 rpm, 45 min, 4° C.). […] After the mixture had been incubated at 4° C. for 60 min (shaking at 15-min intervals), it was centrifuged (Sorvall SM24 tubes, 3000 rpm, 10 min, 4° C.). The supernatant was adjusted to pH 5.2 by adding glacial acetic acid and incubated at 4° C. for 30 min. The precipitates were collected by centrifugation (Sorvall SS34, 12000 rpm, 10 min, 4° C.) and suspended in 2.5 ml of 20 mM tris/HCl, pH 7.0,1 mM EDTA, 65 mM NaCl, 13% sucrose, 1 mM DTT, 10 μg/ml leupeptin/pepstatin/antipain. The suspension was dialyzed against 25 mM tris/HCl, pH 7.4, 50% glycerol, 1 mM DTT, 10 μg/ml leupeptin, pepstatin, antipain at 4° C. overnight and then loaded onto a hydroxy apatite column (0.1 g per 1 ml of suspension, equilibrated with 10 mM potassium phosphate, pH 7.0, 30% glycerol, 1 mM DTT). The column was washed with four volumes of equilibration buffer at a flow rate of 20 to 30 ml/h. The HSL was eluted with one volume of equilibration buffer containing 0.5 M potassium phosphate, and then dialyzed (see above) and concentrated 5- to 10-fold by ultrafiltration (Amicon Diaflo PM 10 filter) at 4° C. The partially purified HSL can be stored at −70° C. for 4 to 6 weeks.
To prepare the substrate, 25-50 μCi of [^3H]trioleoylglycerol (in toluene), 6.8 μmol of unlabeled trioleoylglycerol and 0.6 mg of phospholipids (phosphatidylcholine/phosphatidylinositol 3:1 w/v) were mixed, dried with N2 and then taken up in 2 ml of 0.1 M KPi (pH 7.0) by ultrasonic treatment (Branson 250, microtip, setting 1-2, 2×1 min at 1-min intervals). After addition of 1 ml of KPi and renewed ultrasonic treatment (4×30 sec on ice in 30-sec intervals), 1 ml of 20% BSA (in KPi) was added (final concentration of trioleoylglycerol 1.7 mM). For the reaction, 100 μl of substrate solution were pipetted into 100 μl of HSL solution (HSL prepared as above, diluted in 20 mM KPi, pH 7.0, 1 mM EDTA, 1 mM DTT, 0.02% BSA, 20 μg/ml pepstatin, 10 μg/ml leupeptin) and incubated at 37° C. for 30 min. […] After phase separation, one equivalent of the upper phase (1 ml) was removed and the radioactivity was determined by liquid scintillation measurement.
Substances were normally tested in four independent mixtures. The inhibition of the HSL enzymatic activity by a test substance was determined by comparison with an uninhibited control reaction. The IC50 was calculated via an inhibition plot with at least 10 concentrations of the test substance. The data was analyzed using the software package GRAPHIT, Elsevier-BIOSOFT.

[2] = partially purified HSL from rat fat cells, [3H]trioleoylglycerol substrate, 37° C., 30 min, read-out: IC50

Row | Compound | melting point [°C] | IC50 [1, 2] [µM] | IC50 [1] [µM]
1 | COc1nn(-c2ccc(NS(=O)(=O)c3ccc(OC)c(OC)c3)cc2)c(=O)o1 [Example 92, 3,4-Dimethoxy-N-[4-(5-methoxy-2-oxo-[1,3,4]oxadiazol-3-yl)-phenyl]benzenesulfon-amide] | – | 0.25 | –
2 | COc1nn(-c2cccc(NC(=O)Nc3c(OC)cccc3OC)c2)c(=O)o1 [Example 128, 1-(2,6-Dimethoxyphenyl)-3-[3-(5-methoxy-2-oxo-[1,3,4]oxadiazol-3-yl)phenyl]urea] | – | 0.6 | –
3 | CCCCCCOc1ccc(CNc2ccc(-n3nc(OC)oc3=O)cc2)cc1 [Example 142, 3-[4-(4-Hexyloxybenzylamino)phenyl]-5-methoxy-3H-[1,3,4]oxadiazol-2-one trifluoroacetate] | – | 0.2 | –
4 | COc1nn(-c2ccc(NCC3CCCCC3)cc2)c(=O)o1 [Example 139, 3-[4-(Cyclohexylmethylamino)phenyl]-5-methoxy-3H-[1,3,4]oxadiazol-2-one] | – | 0.4 | –
5 | CCCCCC=CCCCNc1cccc(-n2nc(OC)oc2=O)c1 [Example 171, 3-(3-Dec-4-enylaminophenyl)-5-methoxy-3H-[1,3,4]oxadiazol-2-one trifluoroacetate] | – | 0.6 | –
6 | COc1nn(-c2ccc(NCc3ccc(C#N)cc3)cc2)c(=O)o1 [Example 130, 4-[[4-(5-Methoxy-2-oxo-[1,3,4]oxadiazol-3-yl)phenylamino]methyl]-benzonitrile tri-fluoroacetate] | – | – | 0.5
7 | COc1nn(-c2ccc(NC(=O)c3ccc(C(C)(C)C)cc3)cc2)c(=O)o1 [Example 69, 5-Methoxy-3-(4-(4-t-butylbenzoylamino)phenyl)-3H-(1,3,4)oxadiazol-2-one] | – | 0.03 | –
8 | 5-Methoxy-3-[3-[(3-trifluoromethylphenoxy)benzylamino]phenyl]-3H-[1,3,4]oxadiazol-2-one trifluoroacetate [Example 166] | – | 0.2 | –
9 | COc1nn(-c2ccc(NC(=O)OCc3ccccc3)c(OCc3ccc(F)cc3)c2)c(=O)o1 [Example 60, 5-Methoxy-3-(3-(4-fluorobenzyloxy)-4-benzyloxycarbonylaminophenyl)-3H-(1,3,4)oxadiazol-2-one] | – | 0.2 | –
10 | COc1nn(-c2ccc(NS(=O)(=O)c3cccc4ccccc34)c(C)c2)c(=O)o1 [Example 38, 5-Methoxy-3-(4-(1-naphthylsulfonylamino)-3-methylphenyl)-3H-(1,3,4)oxadiazol-2-one] | 123 | 1 | –
11 | COc1nn(-c2ccc(NC(=O)c3ccccc3F)cc2)c(=O)o1 [Example 97, 2-Fluoro-N-[4-(5-methoxy-2-oxo-[1,3,4]oxadiazol-3-yl)phenyl]-benzamide] | – | 0.03 | –
12 | COc1nn(-c2ccc(NCc3ccc(OCc4ccccc4)cc3)cc2)c(=O)o1 [Example 136, 3-[4-(4-Benzyloxybenzylamino)phenyl]-5-methoxy-3H-[1,3,4]oxadiazol-2-one trifluoroacetate] | – | 0.5 | –
13 | CCOc1ccccc1NC(=O)Nc1ccc(-n2nc(OC)oc2=O)cc1 [Example 152, 1-(2-Ethoxyphenyl)-3-[4-(5-methoxy-2-oxo-[1,3,4]oxadiazol-3-yl)phenyl]urea] | – | 0.2 | –
14 | CCCCCCCCCCC(=O)Nc1ccc(-n2nc(OC)oc2=O)cc1 [Example 107, Undecanoic acid [4-(5-methoxy-2-oxo-[1,3,4]oxadiazol-3-yl)phenyl]amide] | – | 0.12 | –
15 | COc1nn(-c2cccc(NCc3ccccc3)c2)c(=O)o1 [Example 58, 5-Methoxy-3-(3-benzylaminophenyl)-3H-(1,3,4)oxadiazol-2-one] | – | 0.8 | –
16 | COc1nn(-c2ccc(NC(=O)CCCC(=O)c3ccccc3)cc2)c(=O)o1 [Example 116, 5-Oxo-5-phenylpentanoic acid [4-(5-methoxy-2-oxo-[1,3,4]-oxadiazol-3-yl)phenyl]amide] | – | 0.1 | –
17 | COc1nn(-c2ccc(NC(=O)Cc3ccc(Cl)cc3)cc2)c(=O)o1 [Example 30, 5-Methoxy-3-(4-(4-chlorophenylacetylamino)phenyl)-3H-(1,3,4)oxadiazol-2-one] | – | 1 | –

The next lines start with results.

Row | melting point [°C] | IC50 [1, 2] [µM] | Compound | IC50 [1] [µM]
18 | 94 | 0.04 | CCOc1nn(-c2ccc(NC(=O)OCc3ccccc3)c(C)c2)c(=O)o1 [Example 74, 5-Ethoxy-3-(3-methyl-4-benzyloxycarbonylaminophenyl)-3H-(1,3,4)oxadiazol-2-one] | –
19 | 161 | 0.3 | COc1nn(-c2ccc(NC(=O)OCc3ccccc3Cl)c(C)c2)c(=O)o1 [Example 62, 5-Methoxy-3-(3-methyl-4-(2-chlorobenzyloxycarbonylamino)phenyl)-3H-(1,3,4)oxadiazol-2-one] | –
20 | – | 1 | COc1nn(-c2ccc(-n3c(C)ccc3C)c(C)c2)c(=O)o1 [Example 54, 5-Methoxy-3-(4-(2,5-dimethylpyrrol-1-yl)-3-methylphenyl)-3H-(1,3,4)oxadiazol-2-one] | –
21 | 114 | 6 | COc1nn(-c2ccc(N)c(C)c2)c(=O)o1 [Example 28, 5-Methoxy-3-(4-amino-3-methylphenyl)-3H-(1,3,4)oxadiazol-2-one] | –
22 | 143 | 1 | COc1nn(-c2ccc(NC(C)=CC(C)=O)c(C)c2)c(=O)o1 [Example 53, 5-Methoxy-3-(4-(4-oxopent-2-en-2-ylamino)-3-methylphenyl)-3H-(1,3,4)oxadiazol-2-one] | –
23 | – | 0.1 | COc1nn(-c2ccc(NC(=O)OCc3ccccc3)c(C)c2)c(=O)o1 [Example 41, 5-Methoxy-3-(4-(benzyloxycarbonylamino)-3-methylphenyl)-3H-(1,3,4)oxadiazol-2-one] | –
24 | 110 | 3 | CCCCCCCC(=O)Nc1ccc(-n2nc(OC)oc2=O)cc1C [Example 32, 5-Methoxy-3-(4-octanoylamino-3-methylphenyl)-3H-(1,3,4)oxadiazol-2-one] | –
25 | 129 | 1 | COc1nn(-c2ccc(NS(=O)(=O)C=Cc3ccccc3)c(C)c2)c(=O)o1 [Example 39, 5-Methoxy-3-(4-(2-phenylethenylsulfonylamino)-3-methylphenyl)-3H-(1,3,4)oxadiazol-2-one] | –
26 | 210 | 1 | COc1nn(-c2ccc(NC(=O)Nc3ccc(Cl)c(Cl)c3)c(C)c2)c(=O)o1 [Example 42, 5-Methoxy-3-(4-(3,4-dichlorophenylaminocarbonylamino)-3-methylphenyl)-3H-(1,3,4)oxadiazol-2-one] | –
